According to patent US7148352B2, “Method of inhibiting neurotrophin-receptor binding” (Queen's University at Kingston, priority 1999, dated 2006):
“And” between values parts separate entries of the source, which are not always exact repeats. Equal entries are not always repeated.

Experiments:
Parameters in all cases: species or system rat
[1] = tested on: T1, TrkA and p75^NTR (PC12 cells); test: 125I-NGF receptor binding to PC12 cells in the presence of competitor; conditions: compound 50 μM; 125I-NGF 1 nM; 2 h at 4° C.; receptor binding as percentage of binding in absence of competitor
T1 construct: PC12 cells (rat pheochromocytoma cells expressing TrkA and p75^NTR; obtained from ATCC); host or cells: PC12 rat pheochromocytoma cells (intact, in suspension)
T1 sequence (P01139 122-241): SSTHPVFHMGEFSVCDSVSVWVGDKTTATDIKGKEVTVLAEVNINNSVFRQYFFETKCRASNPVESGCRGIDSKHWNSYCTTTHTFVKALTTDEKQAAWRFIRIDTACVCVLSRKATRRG
Procedure: (§1) The radio-iodination and receptor binding of NGF (Sutter et al., 1979) was performed with modifications (Ross et al., 1997) as follows: Evaluation of the ability of NCP compounds to inhibit TrkA and p75^NTR binding was determined by the binding of ^125I-NGF to PC12 cells (rat pheochromocytoma cells expressing TrkA and p75^NTR; obtained from ATCC) and PC12^nnr5 (rat pheochromocytoma cells expressing p75^NTR only; obtained from Dr. L. Greene, Columbia University, NY). The p75^NTR is in a low affinity state and a high affinity state, respectively, in these cell types (Ross et al., 1998). PC12 and PC12^nnr5 cells were grown in RPMI (Sigma) with 10% heat inactivated donor horse serum and 5% fetal calf serum. Cells were harvested by replacing the medium with calcium, magnesium-free balanced salt solution (Gey's solution) and incubating at 37° C. for 15 minutes. Cells were pelleted by centrifugation and suspended in HKR buffer (10 mM Hepes [pH 7.35] containing 125 mM NaCl, 4.8 mM KCl, 1.3 mM CaCl2, 1.2 mM MgSO4, 1.2 mM KH2PO4, 1 g/L glucose and 1 g/L BSA) at a cell concentration of 2×10^6/mL and kept at 4° C. Triplicate tubes were set up for total binding, non-specific binding and binding in the presence of candidate competitor molecule (i.e., a tube for each data point). Each tube contained ^125I-NGF (at 1 nM), 400,000 cells (for a final cell concentration of 10^6/mL) and NGF (50 nM, to define non-specific binding), as required. The tubes were incubated for 2 h at 4° C. and specific binding evaluated by measuring specifically bound DPM (Ross et al., 1997). Data were analysed and the results expressed as receptor binding observed in the presence of competitor (e.g. NCP compounds) as a percentage of receptor binding in the absence of a competitor.

[2] = target: T2, TrkA and p75^NTR (PC12 cells) (Mus musculus, UniProt P01139); test: as above; conditions: compound 50 μM; 125I-NGF 1 nM; 2 h at 4° C.; average of three values
T2 construct: PC12 cells (rat pheochromocytoma cells expressing TrkA and p75^NTR; obtained from ATCC); host or cells: PC12 rat pheochromocytoma cells (intact, in suspension)
T2 sequence (P01139 122-241): as above
Procedure: as §1

[3] = tested on: p75^NTR (PC12^nnr5 cells, expressing p75^NTR only); test: 125I-NGF receptor binding to PC12^nnr5 cells in the presence of competitor; conditions: compound 50 μM, 125I-NGF 1 nM, 2 h at 4° C.; for nnr5 % of Max, Avg: average of three values; for nnr5 % of Max (individual determinations): receptor binding as percentage of binding in absence of competitor
Procedure: as §1

SMILES | PC12 % of Max, Avg [2] | PC12 % of Max (individual determinations) [1] | nnr5 % of Max, Avg [3] | nnr5 % of Max (individual determinations) [3]
O=C(O)c1ccc(CN2C(=O)c3cccc4cc([N+](=O)[O-])cc(c34)C2=O)cc1 [Compound 208, 3-nitro-N-(p-carboxyphenylmethyl)-1,8-naphthalimide] | = 49 % of Max | 56 % of Max and 45 % of Max and 47 % of Max | = 83 % of Max | 103 % of Max and 87 % of Max and 58 % of Max
O=C(O)c1ccc(N2C(=O)c3ccc([N+](=O)[O-])cc3C2=O)cc1 [Compound 145, 4-nitro-N-(p-carboxyphenyl)phthalimide] | = 70 % of Max | 60 % of Max and 77 % of Max and 73 % of Max | = 78 % of Max | 76 % of Max and 86 % of Max and 71 % of Max
Nc1ccc2c(c1)C(=O)N(c1cccc(C(=O)O)c1)C2=O [Compound 166, 4-amino-N-(m-carboxyphenyl)phthalimide] | = 57 % of Max | 43 % of Max and 58 % of Max and 71 % of Max | = 58 % of Max | 55 % of Max and 64 % of Max and 56 % of Max
O=C(O)c1ccc2c(c1)C(=O)N(c1ccccc1C(=O)O)C2=O [Compound 107, 4-carboxy-N-(o-carboxyphenyl)phthalimide] | = 100 % of Max | 111 % of Max and 86 % of Max and 103 % of Max | = 85 % of Max | 58 % of Max and 113 % of Max and 83 % of Max
O=C(O)c1cccc(N2C(=O)c3ccc(C(=O)O)cc3C2=O)c1 [Compound 106, 4-carboxy-N-(m-carboxyphenyl)phthalimide] | = 44 % of Max | 40 % of Max (2×) and 52 % of Max | = 26 % of Max | 37 % of Max and 16 % of Max and 24 % of Max
Nc1ccc2c(c1)C(=O)N(c1ccc(C(=O)O)cc1)C2=O [Compound 165, 4-amino-N-(p-carboxyphenyl)phthalimide] | = 49 % of Max | 54 % of Max and 53 % of Max and 40 % of Max | = 61 % of Max | 61 % of Max and 53 % of Max and 68 % of Max
O=C(O)c1cccc(N2C(=O)c3cccc4c([N+](=O)[O-])ccc(c34)C2=O)c1 [Compound 226, 4-nitro-N-(m-carboxyphenyl)-1,8-naphthalimide] | = 30 % of Max | 27 % of Max and 29 % of Max and 35 % of Max | = 12 % of Max | 13 % of Max (2×) and 10 % of Max
O=C(O)c1ccc(N2C(=O)c3cccc([N+](=O)[O-])c3C2=O)cc1 [Compound 125, 3-nitro-N-(p-carboxyphenyl)phthalimide] | = 90 % of Max | 83 % of Max and 87 % of Max and 99 % of Max | = 49 % of Max | 47 % of Max (2×) and 54 % of Max
O=C(O)c1ccc(N2C(=O)c3cccc4c([N+](=O)[O-])ccc(c34)C2=O)cc1 [Compound 225, 4-nitro-N-(p-carboxyphenyl)-1,8-naphthalimide] | = 66 % of Max | 69 % of Max and 60 % of Max and 68 % of Max | = 56 % of Max | 49 % of Max and 50 % of Max and 68 % of Max

Second part, led by results:

PC12 % of Max, Avg [2] | SMILES | PC12 % of Max (individual determinations) [1] | nnr5 % of Max, Avg [3] | nnr5 % of Max (individual determinations) [3]
= 78 % of Max | O=C(O)CCCCN1C(=O)c2ccc(C(=O)O)cc2C1=O [Compound 103, 4-carboxy-N-(4-carboxybutyl)phthalimide] | 69 % of Max and 65 % of Max and 100 % of Max | = 47 % of Max | 32 % of Max and 69 % of Max and 41 % of Max
= 66 % of Max | O=C(O)CCCN1C(=O)c2ccc([N+](=O)[O-])cc2C1=O [Compound 142, 4-nitro-N-(3-carboxypropyl)phthalimide] | 55 % of Max and 77 % of Max and 67 % of Max | = 51 % of Max | 52 % of Max and 51 % of Max (2×)
= 109 % of Max | O=C(O)CN1C(=O)c2cccc([N+](=O)[O-])c2C1=O [Compound 120, 3-nitro-N-(1-carboxymethyl)phthalimide] | 133 % of Max and 92 % of Max and 103 % of Max | = 183 % of Max | 218 % of Max and 200 % of Max and 130 % of Max
= 56 % of Max | O=C(O)c1ccc2c(c1)C(=O)N(c1ccccc1)C2=O [Compound 109, 4-carboxy-N-phenylphthalimide] | 50 % of Max and 60 % of Max and 57 % of Max | = 73 % of Max | 70 % of Max and 74 % of Max and 75 % of Max
= 56 % of Max | O=C(O)CCCCCN1C(=O)c2ccc(C(=O)O)cc2C1=O [Compound 104, 4-carboxy-N-(5-carboxypentyl)phthalimide] | 51 % of Max and 50 % of Max and 66 % of Max | = 37 % of Max | 30 % of Max and 65 % of Max and 17 % of Max
= 78 % of Max | O=C(O)CCCCCN1C(=O)c2ccc([N+](=O)[O-])cc2C1=O [Compound 144, 4-nitro-N-(5-carboxypentyl)phthalimide] | 68 % of Max and 89 % of Max and 77 % of Max | = 73 % of Max | 74 % of Max (2×) and 70 % of Max
= 92 % of Max | O=C(O)CCCCCN1C(=O)c2cccc([N+](=O)[O-])c2C1=O [Compound 124, 3-nitro-N-(5-carboxypentyl)phthalimide] | 117 % of Max and 71 % of Max and 89 % of Max | = 153 % of Max | 166 % of Max and 182 % of Max and 110 % of Max
= 78 % of Max | O=C(O)CCCCN1C(=O)c2ccc([N+](=O)[O-])cc2C1=O [Compound 143, 4-nitro-N-(4-carboxybutyl)phthalimide] | 65 % of Max and 97 % of Max and 72 % of Max | = 75 % of Max | 76 % of Max and 79 % of Max and 71 % of Max
= 91 % of Max | O=C(O)CCCN1C(=O)c2ccc(C(=O)O)cc2C1=O [Compound 102, 4-carboxy-N-(3-carboxypropyl)phthalimide] | 79 % of Max and 80 % of Max and 113 % of Max | = 55 % of Max | 55 % of Max and 50 % of Max and 61 % of Max
= 116 % of Max | O=C(O)CN1C(=O)c2ccc(C(=O)O)cc2C1=O [Compound 100, 4-carboxy-N-(1-carboxymethyl)phthalimide] | 102 % of Max and 108 % of Max and 137 % of Max | = 100 % of Max | 108 % of Max and 111 % of Max and 80 % of Max
